US20040106093A1, “Myb-transformed blood cells and their use for active ingredient screening” (priority 2001, published 2004)

Assays:
Format in all cases: cell-based, chicken
bFGF/v-myb-cells [1] = experiment: Proliferation assay of bFGF-stimulated bFGF/v-myb-cells with specific signalling inhibitors (3H-thymidine incorporation); details: bFGF 25 ng/ml, FIG. 5B; for effect on bFGF induced bFGF/v-myb cell proliferation: proliferation without inhibitor set 100%, C; for reduction of bFGF induced bFGF/v-myb cell proliferation: GF 109203X 10 nM, Cyclosporin A 10 nM, KN-62 1 μM (methods)
Method: (§1) Cell proliferation was measured as ratio of DNA-synthesis by ^3H-thymidin-incorporation or use CellTiter96® (Promega). Briefly, the cells (4×10^4 cells/100 μl) were incubated in CFU-E-Medium (see above) with 0.8 μCi ^3H-thymidine (specific activity 29 Ci/mmol; Amersham, UK) for 2 hours at 37° C., brought onto filter plates and subjected to scintillation counting. The average values from triplicate samples were determined. The Celltiter96 MTS-assay was for 2 hours. Heparin (B. Braun, Melsungen, Germany) was used at 5 μg/ml. Inhibitors were used at the following concentrations: PD98059 (5 μM), PP2 (100 nM), U-73122 (1 μM), Worthmannin (100 nM), Cyclosporin A (10 nM), GF 109203X (10 nM) and KN-62 (1 μM) (all from Calbiochem).
(B) The bFGF/v-myb-cells were stimulated with bFGF and with specific inhibitors (for details see methods). Cell proliferation was measured in (A) per cent of proliferation in response to bFGF (25 ng/ml) and specific inhibitor is shown. Proliferation without inhibitor was arbitrarily set 100%.
(C) Dose response curve of the PLCy inhibitor U-73122 on bFGF/v-myb-cells in the presence of bFGF (25 ng/ml). Cell proliferation was measured by ^3H-thymidine incorporation assay as in (A). Two independent experiments arc shown.

[2] = system: blastoderm derived bFGF/v-myb-cells; experiment: Growth factor requirements of blastoderm derived v-myb cells in culture; details: bFGF 25 ng/ml, SCF 100 ng/ml, TGFα 5 ng/ml; factor alone; FIG. 2B
Method: Blastoderm-derived cells (2 days incubation, Hamilton-stage HH 10-12) and bone marrow cells ([…]) were cocultivated for 2 days with a mitomycin C-treated virus or control (non-infected)-CEF in a CFU-E-medium (Beug et al., 1995, Methods Enzymol, 254, 41-76) containing bFGF (25 ng/ml, Promega), chicken-SCF (100 ng/ml; Bartunek et al., 1996, Cytokine, 8, 14-20), TGFα (5 ng/ml, Promega) or different combinations thereof, or no factors. After 2 days nonadherent cells were regenerated and cells were grown at 2×10^6 cells/ml. An outgrowth of myb transformed cells was routinely observed at day 5-7 and cell numbers were determined in regular time intervals using the cell counter and analyser system CASY-1 (Scharfe System, Reutlingen, Germany).
(B) Growth factor requirements of bFGF/v-myb-cells. The cumulative number of cells gown with various factors and combinations thereof are shown. Closed and open symbols refer to cells with an erythroid and myeloid phenotype, respectively.

bFGF/v-myb-cells [3] = experiment: FGF dose response in cell proliferation assay (MTT / 3H-thymidine incorporation); details: for proliferative (mitogenic) response in the presence of heparin: heparin 5 μg/ml, 3H-thymidine incorporation, FIG. 5A; for stimulation of bFGF/v-myb-cell proliferation: serial dilutions starting at 100 ng/ml, without heparin, FIG. 4
Method: as §1
FGF—dose response measured by cell proliferation assay (MTT). Serial dilutions of aFGF and bFGF, respectively, starting at 100 ng/ml are shown.
(A) Dose response curve of aFGF and bFGF in the presence or absence of heparin is shown. Cell proliferation was measured by ^3H-thymidine incorporation assay.

bFGF/v-myb-cells [4] = experiment: Erythroid differentiation assay (anaemic serum plus insulin)
Method: To produce erythroid differentiation, cells were incubated in CFU-E-medium without ChS (2×10^6 cells/ml) supplemented with 3% anaemic chicken serum (as source for erythropoietin) plus 10 ng/ml recombinant human insulin (Novo Nordisk) in the presence or absence of 25 ng/ml bFGF. Erythroid differentiation was assessed by (1) determining haemoglobin accumulation in cytospin preparations that stained with neutral, and Diff-Quik (Baxter, Switzerland), or in haemoglobin assay (Beug et al., 1995, Methods Enzymol, 254, 41-76) (2), measuring reduction in cell size with the CASY-1 Cell Counter and Analyser System; and (3) loss of proliferative potential in ^3H-thymidine incorporation assays. Photographs were taken and processed as above.
Differentiation properties of bFGF/v-myb erythroid progenitor cells. Kinetics of the different differentiation parameters of bFGF/v-myb-cells. The number of cells, the cell volume, and the amount of haemoglobin were estimated during the 4-day differentiation in absence (AS, Ins) or presence of bFGF (AS, Ins+bFGF) or without factor (no). The cells remaining in bFGF are only shown as a control (bFGF).

[5] = differentiation induction in the presence of bFGF, FIG. 3

CC(C)=CCC/C(C)=C/CC/C(C)=C/CSc1ccccc1C(=O)O [FTS]
effect on bFGF induced bFGF/v-myb cell proliferation (bFGF/v-myb-cells [1]): neither Ras inhibitor FTS (inhibitor of famesylation) nor src family inhibitor PP-2 had any effect

CN(C)CCCn1cc(C2=C(c3c[nH]c4ccccc34)C(=O)NC2=O)c2ccccc21 [GF109203X]
reduction of bFGF induced bFGF/v-myb cell proliferation (bFGF/v-myb-cells [1]): 30%

CN([C@@H](Cc1ccc(OS(=O)(=O)c2cccc3cnccc23)cc1)C(=O)N1CCN(c2ccccc2)CC1)S(=O)(=O)c1cccc2cnccc12 [KN-62]
reduction of bFGF induced bFGF/v-myb cell proliferation (bFGF/v-myb-cells [1]): Sixty per cent

COc1cccc(-c2cc(=O)c3ccccc3o2)c1N [PD 98059]
effect on bFGF induced bFGF/v-myb cell proliferation (bFGF/v-myb-cells [1]): partially inhibitory only at higher concentrations

COc1ccc2c(c1)CC[C@@H]1[C@@H]2CC[C@]2(C)[C@@H](NCCCCCCN3C(=O)C=CC3=O)CC[C@@H]12 [U-73122]
effect on bFGF induced bFGF/v-myb cell proliferation (bFGF/v-myb-cells [1]): dramatically reduced

COC[C@H]1OC(=O)c2coc3c2[C@@]1(C)C1=C(C3=O)[C@@H]2CCC(=O)[C@@]2(C)C[C@H]1OC(C)=O [Worthmannin]
effect on bFGF induced bFGF/v-myb cell proliferation (bFGF/v-myb-cells [1]): ineffective

CC1(C)C(C=C(Cl)Cl)C1C(=O)OC(C#N)c1cccc(Oc2ccccc2)c1 (centres unmarked) [cypermethrin]
reduction of bFGF induced bFGF/v-myb cell proliferation (bFGF/v-myb-cells [1]): 45%

TGFα: growth factor TGFα
phenotype / outgrowth of v-myb cells with growth factor [2]: outgrowth exclusively of myeloid cells

aFGF: acidic FGF, FGF-1, member of the FGF family
proliferative (mitogenic) response in the presence of heparin (bFGF/v-myb-cells [3]): clear enhancement
stimulation of bFGF/v-myb-cell proliferation (bFGF/v-myb-cells [3]): only marginally if at all

bFGF: growth factor bFGF (basis fibroblast growth factor)
proliferative (mitogenic) response in the presence of heparin (bFGF/v-myb-cells [3]): no further increase
stimulation of bFGF/v-myb-cell proliferation (bFGF/v-myb-cells [3]): induced a maximal stimulation
ability to undergo terminal erythroid differentiation (bFGF/v-myb-cells [4]; differentiation induced by anaemic serum and insulin in the presence of 25 ng/ml bFGF): completely blocked
cell volume (bFGF/v-myb-cells [4]; [5]): approximately 500 μl
haemoglobin accumulation (bFGF/v-myb-cells [4]; [5]): did not accumulate haemoglobin
phenotype / outgrowth of v-myb cells with growth factor [2]: proliferating erythroid bFGF/v-myb-cells were obtained only in the presence of bFGF

cyclosporine A
reduction of bFGF induced bFGF/v-myb cell proliferation (bFGF/v-myb-cells [1]): 45%
